48 molecules from PMC3265452 (PLoS Neglected Tropical Diseases, 2012) can be followed below.

Counter-ions that a name gives are not always drawn.

The target of the first assay is AaDOP2 (Aedes aegypti, UniProt H6D5H2). Kind of assay: AaDOP2 antagonist screen of the LOPAC1280 library (HEK-CRELuc-Aadop2 cells, luminescence). It is filed as cell-based.
Sequence of AaDOP2 (H6D5H2 1-476): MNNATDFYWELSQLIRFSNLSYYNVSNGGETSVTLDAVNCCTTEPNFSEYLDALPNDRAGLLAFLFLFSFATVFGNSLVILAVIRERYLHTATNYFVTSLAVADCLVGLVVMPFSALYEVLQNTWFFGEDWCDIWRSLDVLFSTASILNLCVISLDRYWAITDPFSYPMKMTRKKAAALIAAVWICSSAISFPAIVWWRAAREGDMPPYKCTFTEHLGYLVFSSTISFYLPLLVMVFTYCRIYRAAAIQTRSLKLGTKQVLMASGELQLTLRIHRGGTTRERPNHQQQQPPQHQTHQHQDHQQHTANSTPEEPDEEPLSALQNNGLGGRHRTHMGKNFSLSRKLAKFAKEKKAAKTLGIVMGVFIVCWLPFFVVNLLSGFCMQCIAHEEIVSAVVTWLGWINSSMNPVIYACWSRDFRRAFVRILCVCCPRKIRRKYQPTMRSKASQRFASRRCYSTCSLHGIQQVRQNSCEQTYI
Settings: not given
For the molecule `CC(=O)OCC1=C(C(=O)O)N2C(=O)[C@@H](NC(=O)Cc3cccs3)[C@H]2SC1` [Compound 261, Cephalothin sodium], the “Compound effect (percent receptor signaling in presence of test compound, relative lux units relative to the SCH23390 control)” value came to 92.
The same measure, in the same setting: with `CN/C(=N/CCSCc1nc[nH]c1C)NC#N` [Compound 262, Cimetidine] the figure was 88; with `CN(C)CCC=C1c2ccccc2C=Cc2ccccc21` [Compound 263, Cyclobenzaprine hydrochloride], 106.
The same measure, in the same setting: to `CCN(CC)CCOCCOC(=O)C1(c2ccccc2)CCCC1` [Compound 264, Carbetapentane citrate] belongs 93; to `CN(C)CC[C@@H](c1ccc(Cl)cc1)c1ccccn1` [Compound 267, (+)-Chlorpheniramine maleate], 106.
Still for that read-out and setting: with `Cc1nnc(SCC2=C(C(=O)O)N3C(=O)[C@@H](NC(=O)Cn4cnnn4)[C@H]3SC2)s1` [Compound 268, Cefazolin sodium] the figure was 96.
With `Cl.Clc1ccc(Cn2c(CN3CCCC3)nc3ccccc32)cc1` [Compound 269, Clemizole hydrochloride], the “Compound effect (percent receptor signaling in presence of test compound, relative lux units relative to the SCH23390 control)” value was 96.
On the same count and under the same terms, with `Nc1nc(Cl)nc2c1ncn2[C@@H]1O[C@H](CO)[C@@H](O)[C@H]1O` [Compound 270, 2-Chloroadenosine] the figure was 118; with `CC(C[N+](C)(C)C)OC(N)=O` (stereo not drawn) [Compound 271, Bethanechol chloride], 116.
Still for that read-out and setting: with `Cl.Cl.Clc1cccc(N2CCNCC2)c1` [Compound 273, 1-(3-Chlorophenyl)piperazine dihydrochloride] the figure was 99; with `Cc1cc(NC(=O)Nc2ccc3c(ccn3C)c2)sn1` [Compound 274, SB 204741], 95.
The same measure, in the same setting: to `CO/N=C(\C(=O)N[C@@H]1C(=O)N2C(C(=O)O)=C(CSc3nc(=O)c(=O)[nH]n3C)CS[C@H]12)c1csc(N)n1` [Compound 275, Ceftriaxone sodium] belongs 97; to `O=C(O)c1cc[c]([Hg][Cl])cc1` [Compound 276, 4-Chloromercuribenzoic acid], 96; to `CN1C(=O)CC[C@H]1c1cccnc1` [Compound 277, (-)-Cotinine], 96.
As for `C[C@H](Cc1ccc2c(c1)OC(C(=O)O)(C(=O)O)O2)NC[C@H](O)c1cccc(Cl)c1` [Compound 278, CL 316,243], the “Compound effect (percent receptor signaling in presence of test compound, relative lux units relative to the SCH23390 control)” value was determined as 101.
In the case of `Oc1cc(-c2ccccc2)nc2nc(Cl)ccc12` [Compound 279, 7-Chloro-4-hydroxy-2-phenyl-1,8-naphthyridine], the “Compound effect (percent receptor signaling in presence of test compound, relative lux units relative to the SCH23390 control)” value was determined as 100.
The same measure, in the same setting: with `Clc1ccccc1C(c1ccccc1)(c1ccccc1)n1ccnc1` [Compound 280, Clotrimazole] the figure was 77; with `CN1CCC(=C2c3ccccc3C=Cc3ccccc32)CC1` [Compound 281, Cyproheptadine hydrochloride], 86; with `CO[C@@]1(NC(=O)CSCC#N)C(=O)N2C(C(=O)O)=C(CSc3nnnn3C)CS[C@@H]21` [Compound 283, Cefmetazole sodium], 74.
The same measure, in the same setting: with `CCN(CC)CCCC(C)Nc1ccnc2cc(Cl)ccc12` (stereo not drawn) [Compound 286, Chloroquine diphosphate] the figure was 83.
The same measure, in the same setting: to `CCOC(=O)C(C)(C)Oc1ccc(Cl)cc1` [Compound 287, Clofibrate] belongs 74.
As for `CCCN(CCC)C(=O)Cc1c(-c2ccc(Cl)cc2)nc2c(Cl)cc(Cl)cn12` [Compound 289, CB34], the “Compound effect (percent receptor signaling in presence of test compound, relative lux units relative to the SCH23390 control)” value was found to be 106.
Still for that read-out and setting: to `N[C@@H](C(=O)N[C@@H]1C(=O)N2C(C(=O)O)=C(Cl)CS[C@H]12)c1ccccc1` [Compound 290, Cefaclor] belongs 87; to `C[N+](C)(C)CC#CCOC(=O)Nc1cccc(Cl)c1.[Cl-]` [Compound 292, McN-A-343], 121; to `COc1cccc(C(=O)NCCN2CCN(c3ccc(Cl)cc3)CC2)c1` [Compound 293, N-(2-[4-(4-Chlorophenyl)piperazin-1-yl]ethyl)-3-methoxybenzamide], 95.
Same read-out and setting: with `NCCSSCCN` [Compound 294, Cystamine dihydrochloride] the figure was 84; with `CNc1ccc2oc(C[C@H]3O[C@@]4(CC[C@H]3C)O[C@H]([C@H](C)C(=O)c3ccc[nH]3)[C@H](C)C[C@H]4C)nc2c1C(=O)O` [Compound 296, Calcimycin], 102.
On the same count and under the same terms, with `C[C@@]12C(=O)OC(=O)[C@]1(C)[C@H]1CC[C@@H]2O1` [Compound 297, Cantharidin] the figure was 96; with `CN(C)CCCC1(c2ccc(F)cc2)OCc2cc(C#N)ccc21` (stereo not drawn) [Compound 298, Citalopram hydrobromide], 90.
In the case of `Clc1cccc(Cl)c1N=C1NCCN1` [Compound 299, Clonidine hydrochloride], the “Compound effect (percent receptor signaling in presence of test compound, relative lux units relative to the SCH23390 control)” value is 100.
Same read-out and setting: to `CO/N=C(\C(=O)N[C@@H]1C(=O)N2C(C(=O)O)=C(COC(C)=O)CS[C@H]12)c1csc(N)n1` [Compound 300, Cefotaxime sodium] belongs 93.
On to `CN(C(=O)CCCOc1ccc2[nH]c(=O)ccc2c1)C1CCCCC1` [Compound 301, Cilostamide], for which the “Compound effect (percent receptor signaling in presence of test compound, relative lux units relative to the SCH23390 control)” value is recorded as 88.
The same measure, in the same setting: with `O=C(O)c1cc(O)cc(C(=O)O)n1` [Compound 302, Chelidamic acid] the figure was 82; with `OC[C@H]1O[C@@H](n2cnc3c(NC4CCCC4)ncnc32)[C@H](O)[C@@H]1O` [Compound 303, N6-Cyclopentyladenosine], 89.
Same read-out and setting: with `CC1(C(=O)O)C2CCC(O2)C1(C)C(=O)O` (stereo not drawn) [Compound 304, Cantharidic Acid] the figure was 120; with `CN(C)CCCN1c2ccccc2Sc2ccc(Cl)cc21` [Compound 305, Chlorpromazine hydrochloride], 95.
The same measure, in the same setting: to `O=C(/C=C/c1ccc(O)c(O)c1)OCCc1ccccc1` [Compound 307, Caffeic acid phenethyl ester] belongs 147.
Take `CC(=O)OCC1=C(C(=O)O)N2C(=O)[C@@H](NC(=O)CSc3ccncc3)[C@H]2SC1` [Compound 308, Cephapirin sodium]: the “Compound effect (percent receptor signaling in presence of test compound, relative lux units relative to the SCH23390 control)” value stood at 116.
On the same count and under the same terms, with `CC1=C(C(=O)O)N2C(=O)[C@@H](NC(=O)[C@H](N)C3=CCC=CC3)[C@H]2SC1` [Compound 309, Cephradine] the figure was 79; with `CCN(CCCl)Cc1ccccc1Br.Cl` [Compound 310, DSP-4 hydrochloride], 111.
Still for that read-out and setting: with `CCn1nc(C(=O)O)c(=O)c2cc3c(cc21)OCO3` [Compound 311, Cinoxacin] the figure was 135; with `CCCC(C)(COC(N)=O)COC(=O)NC(C)C` (stereo not drawn) [Compound 312, Carisoprodol], 130; with `CN(C)CCOC(=O)COc1ccc(Cl)cc1` [Compound 313, Centrophenoxine hydrochloride], 99.
Still for that read-out and setting: to `Cl.N[C@@H](CCl)C(=O)O` [Compound 315, beta-Chloro-L-alanine hydrochloride] belongs 99.

The same assay, now with this note: 10 µM compound, 300 nM dopamine, 2 hr; hit = compound effect <20.
Consider `CC1=C(C(=O)O)N2C(=O)[C@@H](NC(=O)[C@H](N)c3ccccc3)[C@H]2SC1.O` [Compound 265, Cephalexin hydrate], for which the “Compound effect (percent receptor signaling in presence of test compound, relative lux units relative to the SCH23390 control)” value came to 87%.
Same read-out and setting: with `Nc1ncnc2c1ncn2[C@@H]1O[C@H](C(=O)NC2CC2)[C@@H](O)[C@H]1O` [Compound 282, 5'-(N-Cyclopropyl)carboxamidoadenosine] the figure was 82%.
As to `Cl.Nc1ccn([C@@H]2O[C@H](CO)[C@@H](O)[C@@H]2O)c(=O)n1` [Compound 288, Cytosine-1-beta-D-arabinofuranoside hydrochloride], the “Compound effect (percent receptor signaling in presence of test compound, relative lux units relative to the SCH23390 control)” value came to 92%.
On the same count and under the same terms, with `NC(=O)c1cc[n+](CC2=C(C(=O)[O-])N3C(=O)[C@@H](NC(=O)[C@@H](c4ccccc4)S(=O)(=O)[O-])[C@H]3SC2)cc1.[Na+]` [Compound 306, Cefsulodin sodium salt hydrate] the figure was 108%.
